The source of these data is PMC6107127, “Characteristics of the mitochondrial and cellular uptake of MPP^+, as probed by the fluorescent mimic, 4'I-MPP^+” (PLoS ONE, 2018).

In data set [1] the test system is MN9D cells. In words: MTT cell viability assay. Format: cell-based. The conditions noted are these: Mus musculus, 16 h incubation. The procedure: Cell viability was determined by the MTT [3-(4,5-dimethylthiazol-2-yl)-2,5-diphenyltetrazolium bromide)] assay. Briefly, cells were seeded on 96-well plates and allowed to grow to about 70–80% confluence. Prior to the experiment, culture media was replaced with KRB-HCO3^- containing desired concentrations of MPP^+ or 4'I-MPP^+ and incubated for 16 h at 37 °C. After the incubation, 10 μL of 5 mg/mL MTT solution was added to each well and incubated for 2 h at 37 °C. The resulting formazan was solubilized by the addition of 210 μL detergent solution [50% DMF/H2O (v/v), 20% SDS (w/v)] followed by incubation at 37 °C for 12 h. The cell viabilities were determined by quantifying solubilized formazan by measuring the difference in the absorbance at 570 nm and 650 nm. Results were expressed as % viability of MPP^+ or 4'I-MPP^+ treated cells with respect to control cells, which were treated under the same conditions except in the absence of the MPP^+ or 4'I-MPP^+.

Data set [2] concerns HepG2 cells. As to the kind of experiment: Intracellular ATP levels. It counts as cell-based, human. The conditions noted are these: 100 μM, 6 h at 37 °C. Here is the method:
Cells grown in 12-well plates were treated with 100 μM MPP^+ or 4'I-MPP^+ in KRB-HEPES for 6 h at 37 °C. After the treatments, cells were suspended in 1 mL of ice-cold KRB-HEPES and 50 μL samples were withdrawn for protein quantification. The remaining cell suspensions were centrifuged for 3 min at 3,500 x g at 4 °C and the cell pellets were treated with 1 mL of lysis buffer (0.1 M Tris, 1% Triton X-100, pH 7.5) for 2 min and centrifuged at 3,500 x g for 3 min to remove the cell debris. The ATP contents of the supernatants were measured using a fluorometric ATP assay kit (BioVision, Milpitas CA, USA) following the manufacture’s guidelines. All ATP levels were normalized to the protein content of each sample.

A short description of data set [3]: Solubility in incubation media. Format: physicochemical. The conditions noted are these: concentrations above 200 μM.
Data set [4] deals with HepG2 cells. In words: Cellular uptake of MPP+ and 4'I-MPP+ (HPLC-UV / fluorescence). It counts as cell-based, human. To be noted: 100 μM toxin, 40 min. Here is the method: (§1) Cells were seeded into 12-well plates at 0.25 x 10^6 cells/well and grown 2–3 days to about 70–80% confluency. The media was removed and a solution containing 100 μM MPP^+ or 4'I-MPP^+ in warm KRB-HEPES (or without Ca^2+ and with 1.4 mM EGTA) was added to each well and incubated at 37 °C for the desired period of time (see Figure legends for further details). After the incubations, the media were removed and cells were washed with ice-cold KRB-HEPES. Washed cells were suspended in 1.0 mL of ice-cold KRB-HEPES and 50 μL aliquots were withdrawn for protein determination. The remaining cell suspensions were centrifuged at 5000 x g at 4 °C for 5 min and the cell pellets were treated with 75 μL of 0.1 M HClO4. The coagulated proteins were pelleted by centrifugation at 13,200 x g at 4 °C for 8 min and the MPP^+ or 4'I-MPP^+ contents of the supernatants were determined by C18-reversed-phase HPLC-UV (HPLC-UV) as previously described using standard curves constructed from authentic standards. The standard curves for HPLC-UV quantifications were constructed using authentic samples of MPP^+ and 4'I-MPP^+ under the same HPLC-UV separation conditions (S1 Fig).
(§2) To quantify 4'I-MPP^+ uptake by fluorescence, MN9D or HepG2 cells grown in glass bottomed plates, washed, and reconstituted with KRB-HEPES (1.0 mL), pH 7.4, and mounted on the stage of a Nikon ECLIPSE Ti-S inverted fluorescence microscope. […]

The test system of data set [5] is MN9D cells. The data set is described as above. It counts as cell-based, mouse. The conditions noted are these: 100 μM toxin, 60 min, 37 °C, KRB-HEPES. The procedure: as §1, §2
A further data set has as its system MN9D or HepG2 cells. As to the kind of experiment: Mitochondrial membrane potential depolarization (TMRM). Format: cell-based. The conditions noted are these: 100 μM. The procedure: MN9D or HepG2 cells grown in glass-bottomed plates were treated with 50 nM TMRM (AnaSpec, Fremont CA, USA) in KRB-HEPES for 45 min in the dark. After mounting on the stage of a Nikon ECLIPSE Ti-S inverted fluorescence microscope, 15–20 ROIs with uniform fluorescence were selected and TMRM fluorescence at Ex/Em at 543/573 nm was recorded at 5 sec time intervals for 3 min. Then, MPP^+ or 4'I-MPP^+ was added to a final concentration of 500 or 100 μM, respectively and TMRM fluorescence measurements were continued for an additional 40 min for MPP^+ and 15 min for 4'I-MPP^+ at 15 sec time intervals. The background fluorescence was subtracted from the ROI fluorescence and averages of corrected data were used to estimate the magnitude of the mitochondrial membrane potential.

In the data set on MN9D cells [1], `C[n+]1ccc(-c2ccc(I)cc2)cc1` [4'I-MPP^+, 1-methyl-4-(4'-iodophenyl)pyridinium] had an IC50 of approximately 40 µM. Also, in the data set with HepG2 cells [2], the “effect on intracellular ATP levels” value was “deplete intracellular ATP levels”. For the same molecule, the “solubility in the incubation media” value in data set [3] is “low solubility”. In the data set with HepG2 cells [4], the “cellular uptake in 40 min” value is given as 1.4 nmoles/mg of protein. In addition, the “cellular uptake in 1 h” value in the data set with MN9D cells [5] is reported as 1.2 nmoles/mg of protein. Further, in the data set with MN9D or HepG2 cells, the “time to depolarize the mitochondrial membrane by 20–50%” value was found to be 20 min.
